Laboratory results: the Biogen ADME set (Fang et al. 2023)
In brackets after ≈: the same amount, converted by molar mass.

Conditions: for aqueous solubility: pH 6.8

SMILES | MDR1-MDCK efflux ratio | intrinsic clearance, human liver microsomes | intrinsic clearance, rat liver microsomes | aqueous solubility | fraction unbound, human plasma | fraction unbound, rat plasma
O=C(NCCc1ccccc1)c1cnccn1 | 0.607 | 0.808 L/h/kg | 1.74 L/h/kg | 0.0591 mg/mL (≈ 260 µM) | – | –
Cc1cnc(CNCc2cccc3c2OCO3)s1 | 0.607 | 1.98 L/h/kg | 12.3 L/h/kg | 0.0348 mg/mL (≈ 133 µM) | – | –
CN(Cc1c(F)cccc1Cl)C(=O)c1ccc(-n2ccnc2)nc1 | 0.625 | 1.58 L/h/kg | 99.7 L/h/kg | 0.0541 mg/mL (≈ 157 µM) | – | –
CN1CCC(Cc2cccc(-c3nccs3)n2)C1 (stereo not given) | 1.16 | 2.58 L/h/kg | 122 L/h/kg | – | – | –
Cc1cccc(OC2CCN(CC(N)=O)CC2)c1 | 0.636 | ≤ 0.284 L/h/kg | 4.03 L/h/kg | 0.079 mg/mL (≈ 318 µM) | – | –
Cc1ccc(C(=O)N2CCN(C(=O)NCC(=O)N3CCCC3)CC2)cc1F | 60.6 | ≤ 0.284 L/h/kg | 1.34 L/h/kg | 0.0756 mg/mL (≈ 201 µM) | – | –
Nc1cnc(Cc2ccc(F)cc2)nc1 | 0.67 | ≤ 0.284 L/h/kg | 0.926 L/h/kg | 0.0382 mg/mL (≈ 188 µM) | – | –
CCn1ccc2cc(C(=O)N3CCN(c4ccc(C)cc4)C(=O)C3)ccc21 | 2.47 | 0.721 L/h/kg | 15.6 L/h/kg | 0.0457 mg/mL (≈ 127 µM) | – | –
CCc1cc(=O)[nH]c(SCCCCC2CCOCC2)n1 | 1.12 | 2.05 L/h/kg | 17.2 L/h/kg | – | – | –
CCOc1ccccc1C(=O)N1CCC(c2nc(-c3ccc(OC)cc3)c(C(N)=O)[nH]2)CC1 | 47.7 | 6.25 L/h/kg | 14.2 L/h/kg | 0.0464 mg/mL (≈ 103 µM) | – | –
COc1ccc(NC(=O)CN2CCC(c3cc(-c4cnc(N)nc4)cc(C)n3)CC2)cc1 | 5.08 | 0.942 L/h/kg | 14.7 L/h/kg | 0.0425 mg/mL (≈ 98.2 µM) | – | –
O=C(Nc1nnc[nH]1)c1ccc(C2SCCCS2)cc1 | – | 0.493 L/h/kg | 8.81 L/h/kg | – | – | –
CNC(=O)c1cnc(/C=C/c2csc(-c3cccs3)n2)s1 | 0.521 | 2.06 L/h/kg | 13 L/h/kg | 0.00888 mg/mL (≈ 26.6 µM) | – | –
CCONC(=O)c1cnn(-c2cccc(Cl)c2)c1 | – | 2.09 L/h/kg | 26.8 L/h/kg | 0.041 mg/mL (≈ 154 µM) | – | –
CN(Cc1ccccc1N1CCCC1)C(=O)c1cccc(Cn2ccnc2)c1 | 21.7 | 23.5 L/h/kg | 90.9 L/h/kg | 0.0616 mg/mL (≈ 164 µM) | – | –
Nc1nccc2c1ncn2[C@H]1C=C(CO)[C@@H](O)[C@H]1O | – | ≤ 0.284 L/h/kg | 0.98 L/h/kg | – | – | –
CN(Cc1cnccn1)C(=O)c1cc(-c2ccc(F)cc2)on1 | – | – | – | 0.016 mg/mL (≈ 51.2 µM) | – | –
O=c1c2c(Cl)ccc(Cl)c2ncn1Cc1cc(O)ncn1 | – | ≤ 0.284 L/h/kg | ≤ 0.64 L/h/kg | – | – | –
c1ccc2c(N3CCn4c(nnc4C4CC4)C3)ncnc2c1 | 16 | ≤ 0.284 L/h/kg | ≤ 0.64 L/h/kg | 0.0434 mg/mL (≈ 148 µM) | – | –
CNC(=O)c1sc2ncccc2c1[C@H]1CC[C@H](CNC(=O)COc2ccccc2)CC1 | 31 | 6.16 L/h/kg | 63.9 L/h/kg | 0.0912 mg/mL (≈ 208 µM) | – | –

SMILES | MDR1-MDCK efflux ratio | intrinsic clearance, human liver microsomes | intrinsic clearance, rat liver microsomes | aqueous solubility | fraction unbound, human plasma | fraction unbound, rat plasma
Cc1ccc(NC(=O)CN(C)C(=O)c2ccccc2F)nc1 | 1.43 | ≤ 0.284 L/h/kg | 6.2 L/h/kg | 0.054 mg/mL (≈ 179 µM) | – | –
CCS(=O)(=O)Nc1ccc(Oc2ccc(F)cc2F)c(-c2cn(C)c(=O)c3[nH]ccc23)c1 | 51.2 | ≤ 0.284 L/h/kg | 0.895 L/h/kg | 0.0169 mg/mL (≈ 36.7 µM) | – | –
CCc1cc(NC(=O)Cc2c(C)nc3nc(SC)nn3c2C)[nH]n1 | – | – | – | 0.0158 mg/mL (≈ 45.8 µM) | – | –
Cc1noc2ncc(-c3nnc(CC(C)(C)C)o3)cc12 | – | – | – | 0.0377 mg/mL (≈ 138 µM) | – | –
Cc1cc(N2CCCCC2)nc(CNC(=O)c2ccccc2Cl)n1 | 0.671 | 3.39 L/h/kg | 60.3 L/h/kg | 0.0652 mg/mL (≈ 189 µM) | – | –
O=C(C1CCCCC1)N1CCC[C@H]1Cn1nnc(-c2cccs2)n1 | – | 7.77 L/h/kg | 307 L/h/kg | – | – | –
Cc1nc(-c2ccc(S(=O)(=O)N(C)C)cc2)cc(C(C)C)n1 | 0.669 | 2.08 L/h/kg | 134 L/h/kg | – | – | –
COc1cc2c(cc1OC)[C@@H]1CC(=O)[C@@H](CC(C)C)CN1CC2 | 0.721 | 3.47 L/h/kg | 19.8 L/h/kg | – | – | –
O=C(CC1CCCC1)NCc1ccncc1 | – | – | – | 0.058 mg/mL (≈ 266 µM) | – | –
O=C(NCC1(N2CCCCC2)CCCC1)c1cnn[nH]1 | 31.7 | ≤ 0.284 L/h/kg | ≤ 0.64 L/h/kg | – | – | –
CC(=O)N[C@H]1CC2(CCN(C(=O)COc3cc(C)c(Cl)c(C)c3)CC2)OC[C@]1(C)O | 42.6 | 1.46 L/h/kg | 9.96 L/h/kg | – | – | –
Cc1cccc(NC(=O)c2ccccc2-c2ccccc2)n1 | 0.551 | 3.85 L/h/kg | 41.2 L/h/kg | 0.0331 mg/mL (≈ 115 µM) | – | –
O=C(Cn1cc(NCc2cccc(Cl)c2)cn1)N1CCOCC1 | 4.24 | 0.354 L/h/kg | 4.32 L/h/kg | – | – | –
CCCCN(C)C(=O)c1cn(-c2ccc(C)c(C)c2)nn1 | – | 7.6 L/h/kg | 31.8 L/h/kg | 0.00881 mg/mL (≈ 30.8 µM) | – | –
CCCN1CCCN(c2ncccc2C#N)CC1 | 0.42 | 1.77 L/h/kg | 101 L/h/kg | 0.0279 mg/mL (≈ 114 µM) | – | –
NC1CC(NC(=O)c2ccc(-c3cn[nH]c3)cn2)C12CCC2 (stereo not given) | 8.96 | 0.51 L/h/kg | – | – | 0.513 | –
Cc1cc(NC(=O)c2cccs2)no1 | 0.617 | 2.38 L/h/kg | 47.6 L/h/kg | 0.0316 mg/mL (≈ 152 µM) | – | –
CCCCCCCCc1ccc2c(c1)CC[C@@H](C(N)(CO)CO)C2 | – | – | – | 0.00081 mg/mL (≈ 2.43 µM) | – | –
O=C(c1ccc(-n2cccn2)nc1)N1CCN(c2ccccc2O)CC1 | 0.747 | 0.348 L/h/kg | 7.63 L/h/kg | 0.0425 mg/mL (≈ 122 µM) | – | –
CN1C(=O)N(CC(=O)Nc2ccccc2-c2ccccc2)C(=O)C1(C)C | 12.9 | 1.28 L/h/kg | 16.8 L/h/kg | 0.0187 mg/mL (≈ 53.2 µM) | – | –

SMILES | MDR1-MDCK efflux ratio | intrinsic clearance, human liver microsomes | intrinsic clearance, rat liver microsomes | aqueous solubility | fraction unbound, human plasma | fraction unbound, rat plasma
CC(C)(C)c1ccc(-c2nc3n(c(=O)c2C#N)CCS3)cc1 | – | 0.514 L/h/kg | 11.5 L/h/kg | 0.0025 mg/mL (≈ 8.03 µM) | 0.0539 | 0.0286
COc1ccc(-c2cccc(C3CCCN(CC(=O)Nc4ccccn4)C3)n2)cc1 (stereo not given) | 0.833 | 7.88 L/h/kg | 133 L/h/kg | 0.0081 mg/mL (≈ 20.1 µM) | – | –
CCN(Cc1ccncc1)[C@@H]1CN(C(=O)c2ccccc2)C[C@H]1O | 37.3 | 2.71 L/h/kg | 21.7 L/h/kg | 0.115 mg/mL (≈ 354 µM) | – | –
CCOc1ccc2nc3c(cc2c1)CN(CCOC)C(=O)O3 | – | 0.722 L/h/kg | 12.9 L/h/kg | – | – | –
CSc1cccc(-c2ccccc2-c2nnc(C)o2)c1 | 0.652 | 8.7 L/h/kg | 148 L/h/kg | 0.0415 mg/mL (≈ 147 µM) | – | –
Cc1cccc(OCCn2c(N)nc3ccccc32)c1 | – | 0.296 L/h/kg | 132 L/h/kg | 0.0391 mg/mL (≈ 146 µM) | – | –
CN(Cc1cnc2ccccc2n1)S(=O)(=O)N1CCCCCC1 | 0.62 | 13.8 L/h/kg | 345 L/h/kg | – | – | –
Cc1ccc(C(=O)N(C)C)cc1NS(C)(=O)=O | 8.3 | ≤ 0.284 L/h/kg | ≤ 0.64 L/h/kg | 0.0503 mg/mL (≈ 196 µM) | – | –
Cc1ccnc(NC(=O)CN2CCCC2=O)c1 | 2.12 | ≤ 0.284 L/h/kg | ≤ 0.64 L/h/kg | 0.0551 mg/mL (≈ 236 µM) | – | –
C=C(C)COc1cccc(C(=O)NCc2nncn2C2CCCCC2)c1 | 16.9 | 9.5 L/h/kg | 125 L/h/kg | 0.0269 mg/mL (≈ 75.9 µM) | – | –
CCc1ccc(S(=O)(=O)NCc2ccnc(N3CCCC3)n2)cc1 | 0.891 | 18.7 L/h/kg | 123 L/h/kg | 0.0677 mg/mL (≈ 195 µM) | – | –
Cc1cc2c(s1)c1cnn(Cc3ccccc3F)c(=O)c1n2C | – | 19.5 L/h/kg | 159 L/h/kg | – | – | –
O=C(CCCc1ccc(F)cc1)N1CCN(c2ccccc2)C(=O)C1 | 0.896 | ≤ 0.284 L/h/kg | 10.6 L/h/kg | 0.0492 mg/mL (≈ 145 µM) | – | –
N#Cc1c(N2CCCC2)oc2nc3ccccc3nc12 | – | – | – | 0.0003 mg/mL (≈ 1.14 µM) | – | –
Cc1cccnc1Nc1cccc(C2CCCN(CC(=O)Nc3nccs3)C2)n1 (stereo not given) | 1.49 | 5.39 L/h/kg | 34.9 L/h/kg | – | 0.0152 | 0.0434
Cc1cccc(N2CCN(CCCCNC(=O)c3c(F)cccc3F)CC2)c1 | 1.22 | 4.58 L/h/kg | 30.6 L/h/kg | – | – | –
Cc1nn(C)c2ncc(C(=O)Nc3ccc4c(c3)CCO4)cc12 | 0.571 | 0.487 L/h/kg | 2.89 L/h/kg | 0.0229 mg/mL (≈ 74.3 µM) | – | –
CCn1nccc1-c1cc(C)nc(N2CCCC2)n1 | 0.641 | 6.88 L/h/kg | 23.9 L/h/kg | – | – | –
